Measurements from publication PMC9936538, “Structure–Activity Relationship of N-Ethyl-Hexedrone Analogues: Role of the α-Carbon Side-Chain Length in the Mechanism of Action, Cytotoxicity, and Behavioral Effects in Mice” (ACS Chemical Neuroscience, 2023).

Experiments:
hDAT [1] = target: T1, hDAT (Homo sapiens, UniProt Q01959); experiment: Monoamine uptake inhibition, [3H]MPP+ uptake at hDAT in transfected HEK293 cells; assay type: cell-based
T1 construct: expressed in transfected cells; host or cells: HEK293
Protocol: (§1) Human embryonic kidney cells (HEK293) stably transfected with the human DAT and SERT were used for both the uptake inhibition and transporter binding assays.[6] Cells were cultured in DMEM supplemented with heat-inactivated 10% fetal bovine serum (FBS), […], and 100 U/mL penicillin at 37 °C in a 5% CO2 humidified atmosphere. Geneticin (G418; 50 μg/mL) was added to maintain the selection process. Upon approximately 80% confluence, cells were washed with 5 mL of phosphate-buffered saline (PBS) and 1 mL of trypsin/EDTA was added. After 3 min, 9 mL of DMEM was added to stop cell trypsinization. If necessary, centrifugation was performed to pellet the cells. Cells were then resuspended, counted, and seeded onto poly-D-lysine coated (24 h/prior to the experiment) 96-well plates at a density of 0.36 million cells per well for the uptake inhibition assays.
(§2) Assays were performed as previously described.[8] On the test day, the medium was removed from the cell culture 96-well plates and immediately replaced with 200 μL of Krebs-HEPES-buffer (KHB; 10 mM HEPES, 120 mM NaCl, 3 mM KCl, 2 mM CaCl2·2H2O, 2 mM MgCl2·6H2O supplemented with 20 mM D-glucose; pH 7.3). To ensure equilibrated conditions, cells were incubated with different concentrations of the drugs in KHB at a final volume of 50 μL/well for 5 min (preincubation). The preincubation solution was removed, and cells were incubated with the tritiated compounds, 0.02 μM [^3H]MPP^+ for hDAT and 0.1 μM [^3H]5-HT for hSERT, together with various concentrations of the test drugs in KHB. The uptake incubation times were 3 min for hDAT and 1 min for hSERT. The reaction was stopped by rapid removal of the incubation solution and washout with ice-cold KHB. Cells were lysed with 1% sodium dodecyl sulfate, and lysates were subsequently transferred to vials containing scintillation fluid. Radioactivity was quantified with a beta-scintillation counter (PerkinElmer, Waltham, MA, USA). The uptake in the absence of the test drugs was normalized to 100%, and the uptake in the presence of various concentrations of cathinones was expressed as a percentage thereof. […] Four independent experiments carried out on triplicates were performed.
(§3) For in vitro assays, data were normalized with 100% defined as the mean of the technical replicates in the control group and expressed as mean ± SEM. Nonlinear regression was used to fit the different competition curves. Data were plotted and best fitted to a sigmoidal dose–response curve from which an IC50 or LC50 value was obtained. Transporter ratios were calculated as (1/DAT IC50: 1/SERT IC50). […] The Cheng–Prusoff equation was used to calculate Ki (affinity): Ki = EC50/(1 + [radioligand concentration/Kd]).[65] The sample size for behavioral experiments was determined using GPower software. One-way or two-way ANOVA, and subsequent Tukey’s posthoc test, conducted only if F was significant, was used to determine the effects of cathinones on cytotoxicity, HLA, OF, and CPP experiments. The α error probability was set at 0.05 (p < 0.05). The exact size group for the behavioral experiments is shown in the corresponding figure legends. All statistic calculations were carried out using GraphPad Prism (GraphPad software, San Diego, CA, USA).

hSERT [2] = target: T2, hSERT (Homo sapiens, UniProt P31645); experiment: Monoamine uptake inhibition, [3H]5-HT uptake at hSERT in transfected HEK293 cells; assay type: cell-based; details: transfected HEK293 cells; mean ± SEM of four independent experiments; read-out: [3H]5-HT uptake at hSERT, IC50
T2 construct: expressed in transfected cells; host or cells: HEK293
Protocol: as §1, §2, §3

hDAT [3] = target: T1, hDAT; experiment: Transporter binding, [3H]WIN 35,428 binding at hDAT (HEK293 membranes); details: membranes of transfected HEK293 cells; mean ± SEM of four independent experiments; read-out: [3H]WIN 35,428 binding at hDAT, Ki
Protocol: (§4) For membrane preparation, cells were harvested from 80 to 90% confluent dishes. HEK293 cells were washed with ice-cold phosphate-buffered saline (PBS), mechanically detached from the dish using a plastic scraper, and pelleted by centrifugation (400g for 10 min at 4 °C). The pellet was resuspended in HME buffer (20 mM HEPES NaOH, 1 mM EDTA, 2 mM MgCl2; pH 7.4), subjected to two freeze–thaw cycles in liquid nitrogen and homogenized through sonication at 4 °C. Membranes were then collected by centrifugation (40,000g for 30 min at 4 °C) and resuspended in an appropriate volume of HME buffer. The different membrane preparations aliquots were kept at −80 °C. Protein concentration was determined using the Bio-Rad Protein Reagent (Bio-Rad Laboratories, Hercules, CA).
(§5) Binding assays were performed as described.[6] […] This nonspecific binding also allows subtracting from the total binding values of the binding to other components such as membrane lipids or microfiber filters. Incubation was performed for 1 h at 22 °C. Binding reactions are stopped by rapid filtration of the membranes through GF/C glass microfiber filters presoaked with 0.5% polyethyleneimine and rapid washing with ice-cold wash buffer (120 mM NaCl, 2 mM MgCl2, 10 mM Tris, and 100 μM ZnCl2 for hDAT, and […], 2 mM MgCl2, and 10 mM Tris, for hSERT). Thereafter, the filters are placed into vials, a scintillation cocktail is added and trapped radioactivity is quantified by liquid scintillation counting. Specific binding of each drug to the transporter was defined as the difference between total binding (binding buffer in absence of the drug) and nonspecific binding. For each cathinone, four independent experiments carried out on duplicates were performed.
as §3

hSERT [4] = target: T2, hSERT; experiment: Transporter binding, [3H]imipramine binding at hSERT (HEK293 membranes); details: membranes of transfected HEK293 cells; mean ± SEM of four independent experiments; read-out: [3H]imipramine binding at hSERT, Ki
Protocol: as §4, §5, §3

Swiss CD-1 mice = experiment: Conditioned place preference (CPP); assay type: in vivo; details: 10 mg/kg i.p.
Protocol: Male Swiss CD-1 mice (Janvier, Le Genest, France) weighing 30–35 g (6–8 weeks old), housed in temperature-controlled conditions (22 ± 1 °C) under a 12 h light/dark cycle and with free access to food and drinking water (standard laboratory diet, Panlab SL, Barcelona, Spain), were randomly assigned to an experimental group. Efforts were made to minimize animal use and suffering.
The potential of the studied compounds to induce reward was determined using a place conditioning paradigm, as described.[6] For this experiment, an apparatus with two distinct compartments, with differences in tactile and visual cues, communicated by a central corridor, has been used. In brief, CPP was performed in three phases: preconditioning test, conditioning, and postconditioning test. During the preconditioning phase (day 0), mice were placed in the middle of the corridor and had free access to both compartments for 15 min. The time spent in each compartment was recorded and monitored using a specific tracking software (Smart 3.0 Panlab, Barcelona, Spain). […] In the alternative session, mice received a saline i.p. injection and were placed for 20 min in the other compartment. Mice in the control group received a saline injection in every session. The compartment and session in which mice received the drug were randomized. On the test day (postconditioning phase), the same conditions as in the preconditioning phase were applied. A preference score was calculated as the difference between the time spent in the drug-paired compartment in the postconditioning test minus the time spent in the preconditioning phase.

[5] = Cytotoxicity in NGF-differentiated PC12 cells, WST-8 cell viability assay; assay type: cell-based; details: rat, WST-8, 24 h exposure, mean ± SEM of 3–4 experiments, read-out: LC50 (approximated), cell viability
Protocol: Pheochromocytoma cells (PC12) cells were cultured in collagen-coated dishes in DMEM supplemented with heat-inactivated 5% FBS, 10% horse serum, 10 mM HEPES, 2 mM glutamine, 25 UI/mL penicillin, and 25 μg/mL streptomycin (maintenance medium) and grown at 37 °C in a humidified 5% CO2 atmosphere. Cell differentiation was performed as described[54] with minor modifications. In brief, cells were seeded (250.000 cells/well) onto 96-well plates in the maintenance medium, and after 24 h, the medium was changed to a differentiation medium containing 50 ng/mL NGF. After 24 h, neurite outgrowth was already apparent.
Treatments with different concentrations of the drug in DMEM were performed 48 h after cell differentiation. 10 μL of the tested drug was added per well, in triplicate, and cells were incubated for 24 h at 37 °C in a humidified 5% CO2 atmosphere. Thereafter, the medium was removed and immediately replaced with a maintenance medium. 10 μL of the CCK-8 Cell Counting Kit, based on 2-(2-methoxy-4-nitrophenyl)-3-(4-nitrophenyl)-5-(2,4-disulfophenyl)-2H-tetrazolium, monosodium salt (WST-8), was added per well and was incubated for 2 h at 37 °C in a humidified 5% CO2 atmosphere. This method has been defined as a good alternative to the 3-(4,5-dimethylthiazol-2-yl)-2,5-diphenyltetrazoliumbromide (MTT) assay.[63] Optical density was measured at 450 nm, using a microplate reader.
For in vitro assays, data were normalized with 100% defined as the mean of the technical replicates in the control group and expressed as mean ± SEM. Nonlinear regression was used to fit the different competition curves. Data were plotted and best fitted to a sigmoidal dose–response curve from which an IC50 or LC50 value was obtained. Transporter ratios were calculated as (1/DAT IC50: 1/SERT IC50). Although IC50 values at inhibiting 5-HT uptake for some compounds tested are expressed as >100 μM for clarity purposes, DAT/SERT ratios were calculated with the original raw data. The Cheng–Prusoff equation was used to calculate Ki (affinity): Ki = EC50/(1 + [radioligand concentration/Kd]).[65] The sample size for behavioral experiments was determined using GPower software. One-way or two-way ANOVA, and subsequent Tukey’s posthoc test, conducted only if F was significant, was used to determine the effects of cathinones on cytotoxicity, HLA, OF, and CPP experiments. The α error probability was set at 0.05 (p < 0.05). The exact size group for the behavioral experiments is shown in the corresponding figure legends. All statistic calculations were carried out using GraphPad Prism (GraphPad software, San Diego, CA, USA).

T1 sequence (Q01959 whole entry): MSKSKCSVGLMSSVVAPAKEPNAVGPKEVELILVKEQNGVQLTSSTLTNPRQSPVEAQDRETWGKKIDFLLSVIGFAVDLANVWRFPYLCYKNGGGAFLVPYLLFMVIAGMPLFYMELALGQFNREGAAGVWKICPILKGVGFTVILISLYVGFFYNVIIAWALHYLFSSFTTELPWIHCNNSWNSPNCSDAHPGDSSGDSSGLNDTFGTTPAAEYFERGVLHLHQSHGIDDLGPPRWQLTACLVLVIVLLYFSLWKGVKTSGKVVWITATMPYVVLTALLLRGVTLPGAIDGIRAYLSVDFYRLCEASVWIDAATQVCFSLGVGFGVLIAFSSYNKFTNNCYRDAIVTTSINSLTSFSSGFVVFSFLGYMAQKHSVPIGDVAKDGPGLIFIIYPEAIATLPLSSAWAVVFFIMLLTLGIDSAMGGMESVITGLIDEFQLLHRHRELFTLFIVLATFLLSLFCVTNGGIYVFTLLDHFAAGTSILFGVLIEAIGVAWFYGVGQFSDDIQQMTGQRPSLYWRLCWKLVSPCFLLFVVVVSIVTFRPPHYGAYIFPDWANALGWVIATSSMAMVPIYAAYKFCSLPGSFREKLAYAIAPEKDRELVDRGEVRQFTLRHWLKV
T2 sequence (P31645 whole entry): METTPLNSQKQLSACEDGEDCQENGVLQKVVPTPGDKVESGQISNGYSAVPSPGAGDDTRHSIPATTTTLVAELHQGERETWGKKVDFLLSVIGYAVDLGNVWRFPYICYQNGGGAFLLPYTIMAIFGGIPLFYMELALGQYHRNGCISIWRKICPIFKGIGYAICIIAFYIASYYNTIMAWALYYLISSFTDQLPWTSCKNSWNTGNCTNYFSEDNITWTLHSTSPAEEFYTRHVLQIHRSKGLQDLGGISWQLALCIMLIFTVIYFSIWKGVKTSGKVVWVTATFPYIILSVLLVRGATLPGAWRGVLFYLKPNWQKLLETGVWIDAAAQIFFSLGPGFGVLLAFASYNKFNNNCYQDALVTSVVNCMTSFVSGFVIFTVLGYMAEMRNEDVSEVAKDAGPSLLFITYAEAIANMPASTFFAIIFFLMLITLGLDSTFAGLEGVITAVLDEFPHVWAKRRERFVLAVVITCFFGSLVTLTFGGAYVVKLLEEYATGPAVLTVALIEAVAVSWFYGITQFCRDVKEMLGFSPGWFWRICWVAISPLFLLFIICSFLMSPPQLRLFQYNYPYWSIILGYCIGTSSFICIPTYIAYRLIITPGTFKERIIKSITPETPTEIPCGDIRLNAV

Row | Structure (SMILES) | hDAT/hSERT inhibition ratio (hDAT [1]; 1/DAT IC50:1/SERT IC50, calculated with the original raw data) | IC50 (hDAT [1]; transfected HEK293 cells, mean ± SEM of four independent experiments, read-out: [3H]MPP+ uptake at hDAT, IC50) [µM] | IC50 (hSERT [2]) [µM] | Ki (hDAT [3]) [µM] | Ki (hSERT [4]) [µM] | CPP rewarding effect vs saline (Swiss CD-1 mice) | CC50 at 24 h [5] [µM]
1 | CCCC(C(=O)c1ccccc1)N1CCCC1 (stereo not drawn) [α-PVP, alpha-pyrrolidinovalerophenone, reference compound] | 3222 | 0.124 | > 100 | 0.019 | > 100 | induced rewarding effects | 
2 | CN[C@@H](C)Cc1ccccc1 [Meth, methamphetamine, reference compound] |  |  |  |  |  |  | 8730
3 | COC(=O)[C@H]1[C@@H](OC(=O)c2ccccc2)C[C@@H]2CC[C@H]1N2C [Cocaine, reference compound] |  |  |  |  |  | induced rewarding effects | 
